The conditions of data set [1]: hydrocortisone = 1; cited from earlier work.
Data set [2] can be described thus: In vivo ocular DSP levels after SC injection ([3H]-labeled DSP). On the set-up: species or system Sprague Dawley rat. Here is the method: Nanoparticles were suspended in saline at 20 μCi/mL. […] 40 μL (˜0.8 μCi per eye) of same formulation was injected to both eyes of the same animal (Sprague Dawley rat). At the indicated time intervals, 2 h, 1 day, 3 day, 5 day and 7 day after injection, the rats were anesthetized by intramuscular injection of ketamine/xylazine solution. The animal was sacrificed after collecting two drops of blood from the tail vein.
The eye ball with conjunctiva tissue was carefully removed from rats and rinsed with PBS, dried by Kimwipe tissue. The anterior chamber humor, cornea, vitreous, retina and the remaining eye ball tissue were carefully dissected and collected. Both cornea and retina tissues were rinsed with PBS and dried with Kimwipe tissue. All the samples were weighed, dissolved with 2 mL of Solvable by incubation at 50° C. overnight. Blood samples were bleached with 0.2 ml H2O2 and 20 μL, 0.5M EDTA. 10 ml […] scintillation medium was added before counting the radioactivity in a scintillation counter. The results were expressed as a percentage of the injected dose and are the mean±sd of four eyes (2 animals) per data point. […] Total percentage of injected dose at the periocular tissue and the radioactivity per mg (or mL) of tissue were calculated.
Fifty μL (˜0.8 per eye) of the same formulation was administered to both eyes of the same animal (Sprague Dawley rat) through SC injection. At POD14, the rats under anesthesia were sacrificed after collecting two drops of blood from the tail vein. The aqueous, vitreous, and the remaining ocular tissues containing injection sites were carefully dissected and collected. All the samples were weighed and then dissolved with 2 mL of Solvable (Perkin Elmer, Waltham, Mass.) by incubation at 50° C. overnight. Blood samples were bleached with 0.2 mL H2O2 and 20 μL 0.5M EDTA. Ten milliliters of Ultima gold scintillation medium (Perkin Elmer, Waltham, Mass.) was added before counting the radioactivity in a scintillation counter (Perkin Elmer, Waltham, Mass.). The results were expressed as a percentage of the injected dose and are the mean±standard deviation (SD) of four eyes per data point. […] The total percentage of the injected dose at the injection sites and the radioactivity per mg of tissue or mL of blood were calculated.

Data set [3] concerns transplanted corneal grafts. Description: Corneal allograft rejection after penetrating keratoplasty, weekly SC injection. Format: in vivo, Lewis rats. As to conditions: for survival rate of cornea grafts: weekly SC 50 μL at 1 mg DSP/mL. The method, then: All procedures performed with rats were approved by the Johns Hopkins University Animal Care and Use Committee. The Brown-Norway donor rats were sacrificed and the central corneal button of both eyes were removed with a 4.0-mm trephine and kept in physiological solution ready for use. The surgery was performed by a corneal surgeon (QP) under an operating microscope. The cornea recipient Lewis rats were anesthetized with an intramuscular injection of a mixture of Ketamine (80 mg/kg) and Xylazine (8 mg/kg). Repeated instillations of 0.5% tropicamide eye drops were used on Lewis rats for total pupil dilation before surgery. A paracentesis was performed before trephinization, and the anterior chamber was filled with hyaluronic acid. The corneal buttons were removed from the receptor Lewis rats with a 3.5-mm trephine. The donor corneal button was sutured to receptor cornea with 8 suture points.
All groups of animals were undertaken same treatment once every week until the failure of grafts or the end point of study (9 week).
The clinical observations with a slit lamp microscope were performed by two ophthalmologists (QP and LT) on post-operational (PO) 2 week for group 1 and group 2, PO 4 week for group 3 and PO 9 week for group 4. Three parameters were evaluated for the examination of the corneal grafts (cornea transparency, edema and neovascularization). The scoring for the parameters is presented below.
Intraocular pressure was monitored at PO 2 day, 1 week, 2 week, 4 week, 6 week, 8 week and 9 week after the surgery. IOP recorded for each eye is the average of three successful measurements. Animals at the end time points were sacrificed by CO2 and the eyes with PK surgery were enucleated. Eye tissues were fixed with 10% formalin for 24 h before embedding in paraffin. Sections (5 μm) were cut from through the direction of optical nerve and cornea, and stained with H&E.

Where a name gives a salt, the structure may show the parent alone. A value given as a limit tells only on which side of the number the result lay.

Take `CC(=O)OCC(=O)[C@@]1(O)[C@H](C)C[C@H]2[C@@H]3C=C(C)C4=Cc5c(cnn5-c5ccccc5)C[C@]4(C)[C@H]3[C@@H](O)C[C@@]21C` [Cortivazol]: in data set [1], the “Relative Potency of Glucocorticoid” value was 50.

On to `C[C@@H]1C[C@H]2[C@@H]3CCC4=CC(=O)C=C[C@]4(C)[C@@]3(F)[C@@H](O)C[C@]2(C)[C@@]1(O)C(=O)COP(=O)(O)O` [DSP, Dexamethasone 21-phosphate sodium salt], for which, in data set [2] (PO 2 h, SC injection), the “DSP level in blood” value was not above 350 ng DSP per ml. Moreover, in data set [2] (PO 2 h, single SC injection, ~0.08 mg DSP), the “total dose retained at the conjunctiva tissue” value was “Approximately 0.4%”. Moreover, the “DSP in anterior chamber and vitreous” value in data set [2] (PO 7 day after SC administration) is recorded as “not detectable”. The “DSP at the conjunctiva tissue” value in data set [2] (PO day 1, single SC injection) is on record as “almost no DSP can be detected”. The “DSP levels at retina and cornea” value in data set [2] (SC injection) was “very low”. Moreover, the “time to clearance after SC injection” value in data set [2] (rat, in vivo, sc) was “up to 2 hours”. Further, the figures for the “survival rate of cornea grafts” value in data set [3] (PO 2 week) and in data set [3] (PO 3 week) were 100% and 80%, respectively. The “histological examination of cornea tissues at end point” value in data set [3] (PO 4 week for DSP, PO 9 week for DSP-NP) was “swollen and thicker than the normal healthy cornea”. For the same compound, the “time at which all grafts were rejected” value in data set [3] (PO, weekly SC injection) is 4 week. In data set [3] (weekly SC injection), the “cornea transparency (clinical observation)” value is “as opaque as saline control and NP control groups”. Besides, the “graft neovascularization (clinical observation)” value in data set [3] (weekly SC injection, versus control groups) was “less neovascularization”. Besides, the “graft edema (clinical observation)” value in data set [3] (weekly SC injection, versus saline and NP control) is listed as “significant less edema”.

With `C[C@]12CCC(=O)C=C1CC[C@@H]1[C@@H]2[C@@H](O)C[C@@]2(C)[C@H]1CC[C@]2(O)C(=O)CO` [Hydrocortisone], the “Relative Potency of Glucocorticoid” value in data set [1] is 1.

In the case of `C[C@]12C=CC(=O)C=C1CC[C@@H]1[C@@H]2[C@@H](O)C[C@@]2(C)[C@H]1CC[C@]2(O)C(=O)CO` [Prednisolone], the “Relative Potency of Glucocorticoid” value in data set [1] is listed as 4.

For the compound `C[C@]12C=CC(=O)C=C1CC[C@H]1[C@@H]3C[C@@H](O)[C@](O)(C(=O)CO)[C@@]3(C)C[C@H](O)[C@@]12F` [Triamcinolone], the “Relative Potency of Glucocorticoid” value in data set [1] is reported as 5.

Source of the values: US10195212B2, “Glucocorticoid-loaded nanoparticles for prevention of corneal allograft rejection and neovascularization” (The Johns Hopkins University, priority 2014, dated 2019).
